Results published in publication PMC10535318, “Benzimidazole-Based Schiff Base Hybrid Scaffolds: A Promising Approach to Develop Multi-Target Drugs for Alzheimer’s Disease” (Pharmaceuticals, 2023).
Read-outs that look alike come from different tables or passages of the source.

Legend:
[1] = target: T1, acetylcholinesterase (AChE) (Homo sapiens, UniProt P22303); assay: biochemical
T1 construct: purchased Sigma-Aldrich (Steinheim, Germany)
Experimental: (§1) All chemicals and reagents employed in the study were obtained from Merck or Sigma-Aldrich (St. Louis, MO, USA) (Darmstadt, Germany). Acetylcholinesterase (E.C.3.1.1.7) and butyrylcholinesterase (E.C. 3.1.1.8) were procured from Sigma–Aldrich (Steinheim, Germany). The ^1H NMR and ^13C NMR spectra were recorded using a Bruker FT-NMR spectrometer operating at the digital frequencies of 600 and 150 MHz (Bioscience, Bruker, Billerica, MA, USA). Mass spectra were acquired utilizing a Shimadzu LCMS-IT-TOF system (Kyoto, Japan) employing the electrospray ionization (ESI) technique. The purity of synthesized derivatives was checked through thin-layer chromatography using silica gel 60 F254 (Merck, KGaA, Darmstadt, Germany).
(§2) The study was carried out following the guidelines outlined in our previously published study.

[2] = target: T2, butyrylcholinesterase (BuChE) (Homo sapiens, UniProt P06276); assay: biochemical
T2 construct: purchased Sigma-Aldrich (Steinheim, Germany)
Experimental: as §1, §2

[3] = in vitro, value ± standard error mean, read-out: AChE Inhibition IC50 ± SEM
[4] = in vitro, value ± standard error mean, read-out: BuChE Inhibition IC50 ± SEM

T1 sequence (P22303 32-614, species assumed): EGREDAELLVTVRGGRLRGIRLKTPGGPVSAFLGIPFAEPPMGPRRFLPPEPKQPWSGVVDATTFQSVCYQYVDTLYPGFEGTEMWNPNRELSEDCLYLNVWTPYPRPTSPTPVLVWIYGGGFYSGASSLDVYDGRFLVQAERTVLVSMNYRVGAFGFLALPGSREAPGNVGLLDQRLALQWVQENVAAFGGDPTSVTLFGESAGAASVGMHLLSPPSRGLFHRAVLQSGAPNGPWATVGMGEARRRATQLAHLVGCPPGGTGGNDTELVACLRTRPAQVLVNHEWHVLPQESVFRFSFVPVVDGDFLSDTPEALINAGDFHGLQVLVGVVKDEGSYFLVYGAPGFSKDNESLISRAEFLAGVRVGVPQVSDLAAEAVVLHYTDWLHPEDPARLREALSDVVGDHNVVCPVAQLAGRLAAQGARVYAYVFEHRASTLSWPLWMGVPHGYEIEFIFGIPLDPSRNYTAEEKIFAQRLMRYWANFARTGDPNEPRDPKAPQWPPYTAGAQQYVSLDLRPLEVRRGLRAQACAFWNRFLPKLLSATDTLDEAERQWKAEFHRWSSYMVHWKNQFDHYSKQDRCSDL
T2 sequence (P06276 29-602): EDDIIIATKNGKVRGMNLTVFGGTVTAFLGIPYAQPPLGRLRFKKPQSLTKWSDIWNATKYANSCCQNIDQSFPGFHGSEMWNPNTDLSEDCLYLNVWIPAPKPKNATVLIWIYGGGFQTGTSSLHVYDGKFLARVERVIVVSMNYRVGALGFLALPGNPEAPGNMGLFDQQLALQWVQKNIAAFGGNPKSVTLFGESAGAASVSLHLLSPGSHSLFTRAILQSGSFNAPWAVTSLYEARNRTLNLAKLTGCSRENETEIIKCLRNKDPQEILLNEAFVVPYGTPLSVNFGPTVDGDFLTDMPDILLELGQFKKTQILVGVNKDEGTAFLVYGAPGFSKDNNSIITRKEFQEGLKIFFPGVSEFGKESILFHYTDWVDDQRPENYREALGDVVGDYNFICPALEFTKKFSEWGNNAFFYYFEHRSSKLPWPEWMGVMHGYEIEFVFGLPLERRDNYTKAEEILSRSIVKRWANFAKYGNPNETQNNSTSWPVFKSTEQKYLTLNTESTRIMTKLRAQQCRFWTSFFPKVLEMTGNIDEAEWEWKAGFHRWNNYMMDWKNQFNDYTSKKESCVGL

Structure (SMILES)	IC50 [1] [µM]	IC50 [2] [µM]	IC50 [1, 3] [µM]	IC50 [2, 4] [µM]
O=[N+]([O-])c1ccc(/C(CSc2nc3ccccc3[nH]2)=N/C2=CC=C(Nc3ccc([N+](=O)[O-])cc3O)C2)cc1 [Compound 1, (Z)-2-((4-((2-((1H-benzo[d]imidazol-2-yl)thio)-1-(4-nitrophenyl)ethylidene)amino)cyclopenta-1,3-dien-1-yl)amino)-5-nitrophenol]	214 ± 11.6	249 ± 10.9	–	–
Cc1cc([N+](=O)[O-])ccc1/C(CSc1nc2ccccc2[nH]1)=N/C1=CC=C(Nc2ccc([N+](=O)[O-])cc2O)C1 [Compound 2, (Z)-2-((4-((2-((1H-benzo[d]imidazol-2-yl)thio)-1-(2-methyl-4-nitrophenyl)ethylidene)amino)cyclopenta-1,3-dien-1-yl)amino)-5-nitrophenol]	199 ± 10.2	204 ± 8.2	–	–
O=[N+]([O-])c1ccc(NC2=CC=C(/N=C(\CSc3nc4ccccc4[nH]3)c3ccccc3[N+](=O)[O-])C2)c(O)c1 [Compound 3, (Z)-2-((4-((2-((1H-benzo[d]imidazol-2-yl)thio)-1-(2-nitrophenyl)ethylidene)amino)cyclopenta-1,3-dien-1-yl)amino)-5-nitrophenol]	124 ± 10.2	131 ± 9.7	–	–
Cc1ccc(/C(CSc2nc3ccccc3[nH]2)=N/C2=CC=C(Nc3ccc([N+](=O)[O-])cc3O)C2)cc1 [Compound 4, (Z)-2-((4-((2-((1H-benzo[d]imidazol-2-yl)thio)-1-(p-tolyl)ethylidene)amino)cyclopenta-1,3-dien-1-yl)amino)-5-nitrophenol]	–	–	274 ± 7.6	285 ± 8.2
O=[N+]([O-])c1ccc(NC2=CC=C(/N=C(\CSc3nc4ccccc4[nH]3)c3ccc(Cl)c(Cl)c3)C2)c(O)c1 [Compound 5, (Z)-2-((4-((2-((1H-benzo[d]imidazol-2-yl)thio)-1-(3,4-dichlorophenyl)ethylidene)amino)cyclopenta-1,3-dien-1-yl)amino)-5-nitrophenol]	–	–	169 ± 7.7	179 ± 6.7
O=[N+]([O-])c1ccc(NC2=CC=C(/N=C(\CSc3nc4ccccc4[nH]3)c3ccc([N+](=O)[O-])cc3Br)C2)c(O)c1 [Compound 6, (Z)-2-((4-((2-((1H-benzo[d]imidazol-2-yl)thio)-1-(2-bromo-4-nitrophenyl)ethylidene)amino)cyclopenta-1,3-dien-1-yl)amino)-5-nitrophenol]	226 ± 10.1	274 ± 13.8	–	–
O=[N+]([O-])c1ccc(NC2=CC=C(/N=C(\CSc3nc4ccccc4[nH]3)c3ccccc3Br)C2)c(O)c1 [Compound 7, (Z)-2-((4-((2-((1H-benzo[d]imidazol-2-yl)thio)-1-(2-bromophenyl)ethylidene)amino)cyclopenta-1,3-dien-1-yl)amino)-5-nitrophenol]	–	–	314 ± 12.8	326 ± 13.1
Cc1ccccc1/C(CSc1nc2ccccc2[nH]1)=N/C1=CC=C(Nc2ccc([N+](=O)[O-])cc2O)C1 [Compound 8, (Z)-2-((4-((2-((1H-benzo[d]imidazol-2-yl)thio)-1-(o-tolyl)ethylidene)amino)cyclopenta-1,3-dien-1-yl)amino)-5-nitrophenol]	–	–	291 ± 12.6	304 ± 13.8
COc1ccc(/C(CSc2nc3ccccc3[nH]2)=N/C2=CC=C(Nc3cccc([N+](=O)[O-])c3)C2)cc1O [Compound 9, (Z)-5-(2-((1H-benzo[d]imidazol-2-yl)thio)-1-((4-((3-nitrophenyl)amino)cyclopenta-1,3-dien-1-yl)imino)ethyl)-2-methoxyphenol]	–	–	174 ± 6.76	181 ± 8.5
O=[N+]([O-])c1ccc(NC2=CC=C(/N=C(\CSc3nc4ccccc4[nH]3)c3ccccc3)C2)c(O)c1 [Compound 10, (Z)-2-((4-((2-((1H-benzo[d]imidazol-2-yl)thio)-1-phenylethylidene)amino)cyclopenta-1,3-dien-1-yl)amino)-5-nitrophenol]	–	–	343 ± 10.6	376 ± 12.8
O=[N+]([O-])c1ccc(/C(CSc2nc3ccccc3[nH]2)=N/C2=CC=C(Nc3cccc([N+](=O)[O-])c3)C2)cc1 [Compound 11, (Z)-N-(4-((2-((1H-benzo[d]imidazol-2-yl)thio)-1-(4-nitrophenyl)ethylidene)amino)cyclopenta-1,3-dien-1-yl)-3-nitroaniline]	268 ± 11.7	274 ± 9.1	–	–
Cc1ccc(/C(CSc2nc3ccccc3[nH]2)=N/C2=CC=C(Nc3cccc([N+](=O)[O-])c3)C2)cc1 [Compound 12, (Z)-N-(4-((2-((1H-benzo[d]imidazol-2-yl)thio)-1-(p-tolyl)ethylidene)amino)cyclopenta-1,3-dien-1-yl)-3-nitroaniline]	–	–	308 ± 8.8	318 ± 9.8
Cc1cccc(/C(CSc2nc3ccccc3[nH]2)=N/C2=CC=C(Nc3cccc([N+](=O)[O-])c3)C2)c1 [Compound 13, (Z)-N-(4-((2-((1H-benzo[d]imidazol-2-yl)thio)-1-(m-tolyl)ethylidene)amino)cyclopenta-1,3-dien-1-yl)-3-nitroaniline]	–	–	321 ± 13.5	354 ± 12.7
Cc1ccccc1/C(CSc1nc2ccccc2[nH]1)=N/C1=CC=C(Nc2cccc([N+](=O)[O-])c2)C1 [Compound 14, (Z)-N-(4-((2-((1H-benzo[d]imidazol-2-yl)thio)-1-(o-tolyl)ethylidene)amino)cyclopenta-1,3-dien-1-yl)-3-nitroaniline]	–	–	289 ± 11.5	311 ± 12.3
Cc1cc([N+](=O)[O-])ccc1/C(CSc1nc2ccccc2[nH]1)=N/C1=CC=C(Nc2cccc([N+](=O)[O-])c2)C1 [Compound 15, (Z)-N-(4-((2-((1H-benzo[d]imidazol-2-yl)thio)-1-(2-methyl-4-nitrophenyl)ethylidene)amino)cyclopenta-1,3-dien-1-yl)-3-nitroaniline]	217 ± 8.28	221 ± 8.7	–	–
O=[N+]([O-])c1cccc(NC2=CC=C(/N=C(\CSc3nc4ccccc4[nH]3)c3ccccc3Br)C2)c1 [Compound 17, (Z)-N-(4-((2-((1H-benzo[d]imidazol-2-yl)thio)-1-(2-bromophenyl)ethylidene)amino)cyclopenta-1,3-dien-1-yl)-3-nitroaniline]	–	–	234 ± 10.1	269 ± 9.6
O=[N+]([O-])c1cccc(NC2=CC=C(/N=C(\CSc3nc4ccccc4[nH]3)c3ccc([N+](=O)[O-])cc3Br)C2)c1 [Compound 18, (Z)-N-(4-((2-((1H-benzo[d]imidazol-2-yl)thio)-1-(2-bromo-4-nitrophenyl)ethylidene)amino)cyclopenta-1,3-dien-1-yl)-3-nitroaniline]	214 ± 8.2	247 ± 9.1	–	–
